Reference: patent US5670487A, “Composition for protecting and/or combating blemishes on and/or ageing of the skin, and uses thereof” (L'Oreal, priority 1995, dated 1997)

Key:
[1] = Anti-free-radical activity: inhibition of the production of ethylene from methionine under UVA; assay type: biochemical; settings: UVA 365 nm, 1 J/cm^2, pH 7.4, average of 3 tests
Experimental: The following were introduced in order into a Petri dish 32 mm in diameter:
1.4 ml of 50 mM phosphate buffer (pH=7.4), 100 μl of 200 mM methionine solution
100 μl of 4 mM ferric chloride solution,
100 μl of 4 mM EDTA (ethylenediaminetetraacetic acid) solution, 100 μl of 400 mM NADH (nicotinamideadeninedinucleotide, reduced form) solution, 100 μl of 2 mM riboflavin solution.
Total volume of the mixture: 2 ml.
The Petri dish was then placed in an aluminum crucible and covered with a quartz cell so as to be exposed to UVA rays (365 nm) at a dose of 1 J/cm^2. The mixture, composed of NADH, riboflavin, ferric chloride and EDTA, when subjected to exposure to the UVA rays, generates reduced oxygen species: O2 .cndot.^-, H2 O2, and mainly the hydroxyl radical .cndot.OH. The latter reacts with methionine to release ethylene. The amount of ethylene was measured by gas chromatography.
The smaller the amount of free radicals formed, the smaller the amount of ethylene released. The results are expressed as a percentage of inhibitory power corresponding to the percentage decrease in the production of ethylene relative to the control (containing 100 μl of phosphate buffer replacing the test product).
The following substances studied were introduced using a micropipette: […]
terephthalylidene dicamphor sulphonic acid […]

skin = assay: UVA sun protection factor (PF = protected MPD/non-protected MPD) on the back of volunteers; assay type: in vivo, human (healthy adults of both sexes); settings: for UVA skin protection (assessment in words): based on the UVA sun protection factors 1.6, 2.7 and 3.4; for UVA sun protection factor: 2±0.02 μl/cm^2, UVA 320-400 nm, read approximately 2 h after exposure
Experimental: Potentiation of the sun protection factor
The aim of the test is to show the ability of the compositions of the invention to protect the skin against UVA by virtue of a high UVA protection factor.
Ten individuals were tested. They were healthy adults of both sexes. An area of skin located on the back of each of the volunteers was subjected to solar exposure after defining the skin type. The exposure was carried out with a UVA spectrum alone (320 nm to 400 nm), supplied by a 150 W xenon lamp fitted with a WG 335 filter 3 mm in thickness and a UG 11 filter 1 mm in thickness. The UV radiation was conducted by 6 liquid, flexible light guides, making it possible to deliver doses of from 6 to 45 joules/cm^2 in a 50% geometric progression.
The application was a single dose, in the open air, of 2±0.02 μl/cm^2, i.e., approximately 0.15 ml of test product per individual, on an area of 75 cm^2, measured with a sterile 1 ml Tuberculin syringe graduated to 1/1000 and having a centered cone.
Exposure was approximately 15 min after application of the product. Macroscopic examination of the exposed areas of the skin was performed approximately 2 h after exposure, to evaluate the immediate and permanent pigmentation reactions. The minimum pigmenting dose on the area protected by the product applied (protected MPD) and that on the area in which no product had been applied (non-protected MPD) was performed simultaneously.
The protection factor PF is then calculated as follows:
PF=protected MPD/non-protected MPD
The test was carried out with 3 compositions, each having the same support, containing arbutin, the UV screening agent (terephthalylidene dicamphor sulphonic acid), and the combination of arbutin and the UV screening agent, respectively.

| Structure (SMILES) | % inhibition (percentage decrease in the production of ethylene relative to the control) ([1]; 0.2% arbutin) [%] | UVA skin protection (assessment in words) (skin) | UVA sun protection factor (skin; composition with 5% arbutin) | % inhibition (percentage decrease in the production of ethylene relative to the control) ([1]; 0.2% terephthalylidene dicamphor sulphonic acid) [%] | UVA sun protection factor (skin; composition with 1% terephthalylidene dicamphor sulphonic acid) |
| --- | --- | --- | --- | --- | --- |
| OC[C@H]1O[C@@H](Oc2ccc(O)cc2)[C@H](O)[C@@H](O)[C@@H]1O [arbutin, hydroquinone-beta-D-glucopyranoside] | 39.0 ± 0.6 | negligible skin protection | 1.6 |  |  |
| CC1(C)C2CCC1(CS(=O)(=O)O)C(=O)C2=Cc1ccc(C=C2C(=O)C3(CS(=O)(=O)O)CCC2C3(C)C)cc1 [benzene-1,4-bis(3-methylidenecamphor-10-sulphonic acid)] |  | significant skin protection |  | 44.7 ± 1.7 | 2.7 |
